“Also recorded” adds a separate entry of the source.
Assays:
lymphatic monolayer = details: literature reference 17; cited from earlier work
[1] = system: LEC (lymphatic endothelium); experiment: effect of 15-HETE on the cultured LEC; format: cell-based
From the text: To decipher the role of 15-Lox lipid derived mediators, we studied the effect of 15-HETE on the cultured LEC. We identified a direct effect of 15 HETE on the lymphatic endothelium. It promoted Tcells adhesion to the lymphatic monolayer (data not shown), had no effect on LEC proliferation (data not shown), but stimulated their migration (data not shown).

15-LOX = target: T1, 15-LOX (Mus musculus, UniProt P39654); experiment: 15-LOX inhibitor in mouse model of lymphedema; format: in vivo; details: in presence of 15-LOX inhibitor
T1 construct: from tissue; host or cells: living C57BL/6J mice (lymphedematous limb)
T1 sequence (P39654 1-663): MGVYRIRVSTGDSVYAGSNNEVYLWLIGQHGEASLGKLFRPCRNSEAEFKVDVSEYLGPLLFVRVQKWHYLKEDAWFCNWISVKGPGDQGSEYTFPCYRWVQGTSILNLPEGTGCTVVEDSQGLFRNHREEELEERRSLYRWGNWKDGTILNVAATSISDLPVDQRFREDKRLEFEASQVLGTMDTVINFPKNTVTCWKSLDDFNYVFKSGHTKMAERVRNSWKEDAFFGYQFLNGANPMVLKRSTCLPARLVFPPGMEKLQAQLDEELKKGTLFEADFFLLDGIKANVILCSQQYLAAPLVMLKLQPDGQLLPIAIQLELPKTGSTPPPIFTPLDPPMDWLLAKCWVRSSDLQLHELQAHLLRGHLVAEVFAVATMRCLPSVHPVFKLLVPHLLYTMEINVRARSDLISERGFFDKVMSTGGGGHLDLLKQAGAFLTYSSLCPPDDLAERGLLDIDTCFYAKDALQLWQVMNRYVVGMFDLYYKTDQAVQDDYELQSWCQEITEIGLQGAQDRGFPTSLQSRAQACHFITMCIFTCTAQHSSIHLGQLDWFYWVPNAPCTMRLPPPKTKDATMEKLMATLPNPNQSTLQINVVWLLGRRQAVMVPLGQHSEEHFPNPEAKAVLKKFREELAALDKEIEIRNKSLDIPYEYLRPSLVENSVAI
Procedure: Mice were housed in individually ventilated cages in a temperature and light regulated room in a SPF facility and received food and water ad libitum. Female C57BL/6J (6 weeks old) were obtained from Janvier (Le Genest Saint Isle, France). Mouse model of lymphedema was performed as previously described (Morfoisse ATVB 2008).
To understand the molecular mechanisms underlying the inflammatory process in lymphedema, we performed a time course analysis of the adipose tissue in a mouse model of lymphedema (not shown). […] In early stages of LD (2 weeks post surgery), no significant difference in lipid content was observed (data not shown). In contrast, in acquired lymphedema (8 weeks post-surgery), we found similar pattern as those observed in human tissue samples (data not shown). In particular, we observed a decrease in AA-derived lipid mediators generated by 15-LOX (15-HETE) whereas no difference was found in lipids generated by DHA metabolism (17-HDOHE) (data not shown). After eight weeks of LD, we observed that changes in pro-resolvin content was associated with a decrease in 15-LOX mRNA and protein expression (data not shown). Importantly, the downregulation of 15-LOX was also observed in the lymphatic endothelium (data not shown).
To evaluate the role of 15-LOX in LD, we used the PD146176 pharmacological inhibitor. […] As we previously shown that Tcell populations were recruited during LD development, we next performed flow cytometry analysis. We observed in the presence of 15-LOX inhibitor an increase in CD4+ Tcells during LD associated with a decrease in Treg recruitment (data not shown). This was confirmed by a decrease of Tregs (Foxp3 positive cells) immunodetection in lymphedematous tissues (data not shown).

CCCCC/C=C\C[C@H](O)/C=C/C=C\C/C=C\CCCC(=O)O [12-HETE]
effect on the lymphatic monolayer (lymphatic monolayer): generates holes in the lymphatic monolayer

CCCCC[C@H](O)/C=C/C=C\C/C=C\C/C=C\CCCC(=O)O [15-HETE, 15-hydroxyeicosatetraenoic acid]
deleterious effect / damages on the lymphatic endothelium ([1]; compared to 12-HETE): no deleterious effect; also recorded: did not cause lymphatic damages | LEC proliferation ([1]; cultured LEC): no effect

c1ccc2c(c1)SCc1c-2[nH]c2ccccc12 [PD146176]
CD4+ Tcells during LD (15-LOX; flow cytometry): increase | Treg recruitment (15-LOX; flow cytometry): decrease | Tregs (Foxp3 positive cells) immunodetection in lymphedematous tissues (15-LOX): decrease | LD swelling (15-LOX; mouse model of lymphedema): increased | dermal backflow (15-LOX; mouse model of lymphedema): strong dermal backflow | dermal fibrosis (15-LOX; mouse model of lymphedema): associated with dermal fibrosis
